Measured values published in ChEMBL document CHEMBL3885881, “DrugMatrix”.
Several values for one entry are separate records, joined by “and”; a condition that tells them apart may be missing. Identical values can stand only once.

Species: Rattus norvegicus
Experiment: DrugMatrix - Regimen: Daily Repeat
Format: toxicity, organism-based, Sprague-Dawley
Design: regimen Daily Repeat, gender Male, age 6-8 weeks
Settings: in vivo, po, 0 mg/kg, route oral GAVAGE, dose level Control, vehicle 100 % SALINE; for ABSOLUTE BASOPHIL / ABSOLUTE LYMPHOCYTE / ABSOLUTE SEGMENTED NEUTROPHIL / BASOPHIL / EOSINOPHIL / ERYTHROCYTE COUNT / HEMATOCRIT / HEMOGLOBIN / LEUKOCYTE COUNT / LYMPHOCYTE / MEAN CORPUSCULAR HEMOGLOBIN / MEAN CORPUSCULAR HEMOGLOBIN CONCENTRATION / MONOCYTE / NEUTROPHIL / NUCLEATED RED BLOOD CELLS / PLATELET COUNT / ABSOLUTE EOSINOPHIL / ABSOLUTE MONOCYTE: tissue Blood
[1] = 72 h, tissue Plasma, time 3 day
[2] = 120 h, tissue Plasma, time 5 day

CN(C)C=O [DIMETHYLFORMAMIDE]
ABSOLUTE BASOPHIL (72 h, time 3 day): 0 CELLS/uL | ABSOLUTE LYMPHOCYTE (72 h, time 3 day): 8960.83 CELLS/uL and 11922.83 CELLS/uL | ABSOLUTE SEGMENTED NEUTROPHIL (72 h, time 3 day): 635.67 CELLS/uL and 1526.33 CELLS/uL | BASOPHIL (72 h, time 3 day): 0% | EOSINOPHIL (72 h, time 3 day): 0% and 0.5% | ERYTHROCYTE COUNT (72 h, time 3 day): 5.09 x10E6/uL and 5.62 x10E6/uL | HEMATOCRIT (72 h, time 3 day): 31.8% and 37.17% | HEMOGLOBIN (72 h, time 3 day): 12.42 G/DL and 13.53 G/DL | LEUKOCYTE COUNT (72 h, time 3 day): 9.7 x10E3/uL and 13.92 x10E3/uL | LYMPHOCYTE (72 h, time 3 day): 92.33% and 86.17% | MEAN CORPUSCULAR HEMOGLOBIN (72 h, time 3 day): 24.4 pg and 24.07 pg | MEAN CORPUSCULAR HEMOGLOBIN CONCENTRATION (72 h, time 3 day): 39.07 G/DL and 36.42 G/DL | MONOCYTE (72 h, time 3 day): 1% and 3% | NEUTROPHIL (72 h, time 3 day): 6.67% and 10.33% | NUCLEATED RED BLOOD CELLS (72 h, time 3 day): 0 /100WBC | PLATELET COUNT (72 h, time 3 day): 466.5 x10E3/uL and 1107 x10E3/uL | ALANINE AMINOTRANSFERASE [1]: 83.33 u/L and 45.33 u/L | ALBUMIN [1]: 4.33 G/DL and 4.3 G/DL | ALKALINE PHOSPHATASE [1]: 340.5 u/L and 321.33 u/L | ASPARTATE AMINOTRANSFERASE [1]: 189.83 u/L and 77.33 u/L | BLOOD UREA NITROGEN [1]: 15.83 mg/dL and 14.33 mg/dL | CARBON DIOXIDE [1]: 38 mmol/L and 32.33 mmol/L | CHLORIDE [1]: 96.83 MEQ/L and 99.67 MEQ/L | CHOLESTEROL [1]: 72.5 mg/dL and 82.33 mg/dL | CREATINE PHOSPHOKINASE [1]: 370.67 u/L and 205.5 u/L | CREATININE [1]: 0.28 mg/dL and 0.19 mg/dL | GLUCOSE [1]: 182.83 mg/dL and 150.83 mg/dL | LIPASE [1]: 9.83 u/L and 10.83 u/L | PHOSPHORUS [1]: 11.32 mg/dL and 10.9 mg/dL | SODIUM [1]: 145.12 MEQ/L and 145.15 MEQ/L | TOTAL BILIRUBIN [1]: 0.2 mg/dL and 0.12 mg/dL | TOTAL PROTEIN [1]: 6.4 G/DL and 6.22 G/DL | ABSOLUTE BASOPHIL (120 h, time 5 day): 0 CELLS/uL | ABSOLUTE EOSINOPHIL (120 h, time 5 day): 43.83 CELLS/uL | ABSOLUTE LYMPHOCYTE (120 h, time 5 day): 7316.67 CELLS/uL | ABSOLUTE MONOCYTE (120 h, time 5 day): 87.33 CELLS/uL | ABSOLUTE SEGMENTED NEUTROPHIL (120 h, time 5 day): 418.83 CELLS/uL | BASOPHIL (120 h, time 5 day): 0% | EOSINOPHIL (120 h, time 5 day): 0.33% | ERYTHROCYTE COUNT (120 h, time 5 day): 4.77 x10E6/uL | HEMATOCRIT (120 h, time 5 day): 29.93% | HEMOGLOBIN (120 h, time 5 day): 11.48 G/DL | LEUKOCYTE COUNT (120 h, time 5 day): 7.87 x10E3/uL | LYMPHOCYTE (120 h, time 5 day): 93.5% | MEAN CORPUSCULAR HEMOGLOBIN (120 h, time 5 day): 24.17 pg | MEAN CORPUSCULAR HEMOGLOBIN CONCENTRATION (120 h, time 5 day): 38.57 G/DL | MONOCYTE (120 h, time 5 day): 1% | NEUTROPHIL (120 h, time 5 day): 5.17% | NUCLEATED RED BLOOD CELLS (120 h, time 5 day): 0 /100WBC | PLATELET COUNT (120 h, time 5 day): 377.67 x10E3/uL | ALANINE AMINOTRANSFERASE [2]: 89 u/L | ALBUMIN [2]: 4.42 G/DL | ALKALINE PHOSPHATASE [2]: 275.17 u/L | ASPARTATE AMINOTRANSFERASE [2]: 204.17 u/L | BLOOD UREA NITROGEN [2]: 15.33 mg/dL | CARBON DIOXIDE [2]: 36.83 mmol/L | CHLORIDE [2]: 94.67 MEQ/L | CHOLESTEROL [2]: 92 mg/dL | CREATINE PHOSPHOKINASE [2]: 514.5 u/L | CREATININE [2]: 0.24 mg/dL | GLUCOSE [2]: 184.17 mg/dL | LACTATE DEHYDROGENASE [2]: 648.67 u/L | LIPASE [2]: 10 u/L | PHOSPHORUS [2]: 12.33 mg/dL | SODIUM [2]: 144.63 MEQ/L | TOTAL BILIRUBIN [2]: 0.18 mg/dL | TOTAL PROTEIN [2]: 6.7 G/DL | ABSOLUTE BASOPHIL ([…], time 7 day): 0 CELLS/uL | ABSOLUTE EOSINOPHIL ([…], time 7 day): 22 CELLS/uL | ABSOLUTE LYMPHOCYTE ([…], time 7 day): 11105.17 CELLS/uL | ABSOLUTE MONOCYTE ([…], time 7 day): 258.17 CELLS/uL | ABSOLUTE SEGMENTED NEUTROPHIL ([…], time 7 day): 881.33 CELLS/uL | BASOPHIL ([…], time 7 day): 0% | EOSINOPHIL ([…], time 7 day): 0.17% | ERYTHROCYTE COUNT ([…], time 7 day): 5.29 x10E6/uL | HEMATOCRIT ([…], time 7 day): 34.03% | HEMOGLOBIN ([…], time 7 day): 13.67 G/DL | LEUKOCYTE COUNT ([…], time 7 day): 12.27 x10E3/uL | LYMPHOCYTE ([…], time 7 day): 90.83% | MEAN CORPUSCULAR HEMOGLOBIN ([…], time 7 day): 25.9 pg | MEAN CORPUSCULAR HEMOGLOBIN CONCENTRATION ([…], time 7 day): 40.18 G/DL | MONOCYTE ([…], time 7 day): 2.17% | NEUTROPHIL ([…], time 7 day): 6.83% | NUCLEATED RED BLOOD CELLS ([…], time 7 day): 0 /100WBC | PLATELET COUNT ([…], time 7 day): 1159.83 x10E3/uL | ALANINE AMINOTRANSFERASE ([…], tissue Plasma, time 7 day): 45.83 u/L | ALBUMIN ([…], tissue Plasma, time 7 day): 4.1 G/DL | ALKALINE PHOSPHATASE ([…], tissue Plasma, time 7 day): 240 u/L | ASPARTATE AMINOTRANSFERASE ([…], tissue Plasma, time 7 day): 88.67 u/L | BLOOD UREA NITROGEN ([…], tissue Plasma, time 7 day): 13.67 mg/dL | CARBON DIOXIDE ([…], tissue Plasma, time 7 day): 31.83 mmol/L | CHLORIDE ([…], tissue Plasma, time 7 day): 96.83 MEQ/L | CHOLESTEROL ([…], tissue Plasma, time 7 day): 71.17 mg/dL | CREATINE PHOSPHOKINASE ([…], tissue Plasma, time 7 day): 202.5 u/L | CREATININE ([…], tissue Plasma, time 7 day): 0.22 mg/dL
